Measurements from ChEMBL document CHEMBL4680155, “One-pot synthesis and molecular docking of some new spiropyranindol-2-one derivatives as immunomodulatory agents and in vitro antimicrobial potential with DNA gyrase inhibitor” (Eur J Med Chem, 2020).
In brackets after ≈: the same amount, converted by molar mass. Activity calls are given as the source filed them. The rule behind the calls is not given here.

Assays:
Staphylococcus aureus [1] = experiment: Antibacterial activity against Staphylococcus aureus ATCC 29213 assessed as reduction in bacterial growth incubated for 1 day by paper disk diffusion method; format: functional; settings: ATCC 29213, 24 h
Aspergillus brasiliensis [2] = experiment: Antifungal activity against Aspergillus brasiliensis ATCC 16404 assessed as diameter of inhibition zone at 0.5 mg/ml incubated for 72 hrs by agar diffusion method; format: functional; settings: for zone of inhibition at 500 µg/mL: read-out: DIZ
Candida albicans [3] = experiment: Antifungal activity against Candida albicans ATCC 10231 assessed as diameter of inhibition zone at 0.5 mg/ml incubated for 24 hrs by agar diffusion method; format: functional; settings: for zone of inhibition at 500 µg/mL: read-out: DIZ
Staphylococcus aureus [4] = experiment: Bactericidal activity against Staphylococcus aureus ATCC 29213 incubated for 24 hrs followed by transferring to freshly prepared broth medium and measured after 24 hrs by broth microdilution assay; format: functional; settings: time 48 hrs
Enterococcus faecalis [5] = experiment: Antibacterial activity against Enterococcus faecalis ATCC 29212 assessed as diameter of inhibition zone at 0.5 mg/ml incubated for 24 hrs by agar diffusion method; format: functional; settings: read-out: DIZ
Enterococcus faecalis [6] = experiment: Antibacterial activity against Enterococcus faecalis ATCC 29212 assessed as reduction in bacterial growth incubated for 1 day by paper disk diffusion method; format: functional; settings: ATCC 29212, 24 h
Salmonella typhimurium [7] = experiment: Bactericidal activity against Salmonella typhi ATCC 6539 incubated for 24 hrs followed by transferring to freshly prepared broth medium and measured after 24 hrs by broth microdilution assay; format: functional, Salmonella enterica subsp. enterica serovar […]; settings: Salmonella enterica, time 48 hrs
Staphylococcus aureus [8] = experiment: Antibacterial activity against Staphylococcus aureus ATCC 29213 assessed as diameter of inhibition zone at 0.5 mg/ml incubated for 24 hrs by agar diffusion method; format: functional; settings: read-out: DIZ
Salmonella typhimurium [9] = experiment: Antibacterial activity against Salmonella typhi ATCC 6539 assessed as diameter of inhibition zone at 0.5 mg/ml incubated for 24 hrs by agar diffusion method; format: functional, Salmonella enterica subsp. enterica serovar Typhimurium; settings: Salmonella enterica, read-out: DIZ
Enterococcus faecalis [10] = experiment: Bactericidal activity against Enterococcus faecalis ATCC 29212 incubated for 24 hrs followed by transferring to freshly prepared broth medium and measured after 24 hrs by broth microdilution assay; format: functional; settings: time 48 hrs
Salmonella typhimurium [11] = experiment: Antibacterial activity against Salmonella typhi ATCC 6539 assessed as reduction in bacterial growth incubated for 1 day by paper disk diffusion method; format: functional, Salmonella enterica subsp. enterica serovar Typhimurium; settings: Salmonella enterica, ATCC 6539, 24 h
Aspergillus brasiliensis [12] = experiment: Antifungal activity against Aspergillus brasiliensis ATCC 16404 assessed as reduction in bacterial growth incubated for 3 days by paper disk diffusion method; format: functional
Escherichia coli [13] = experiment: Antibacterial activity against Escherichia coli ATCC 25922 assessed as diameter of inhibition zone at 0.5 mg/ml incubated for 24 hrs by agar diffusion method; format: functional; settings: read-out: DIZ
Escherichia coli [14] = experiment: Antibacterial activity against Escherichia coli ATCC 25922 assessed as reduction in bacterial growth incubated for 1 day by paper disk diffusion method; format: functional; settings: ATCC 25922, 24 h
Candida albicans [15] = experiment: Antifungal activity against Candida albicans ATCC 10231 assessed as reduction in bacterial growth incubated for 1 day by paper disk diffusion method; format: functional
Escherichia coli [16] = experiment: Bactericidal activity against Escherichia coli ATCC 25922 incubated for 24 hrs followed by transferring to freshly prepared broth medium and measured after 24 hrs by broth microdilution assay; format: functional; settings: time 48 hrs
Staphylococcus aureus [17] = experiment: Antibacterial activity against multidrug resistant Staphylococcus aureus ATCC 43300 assessed as diameter of inhibition zone at 0.5 mg/ml incubated for 24 hrs by agar diffusion method; format: functional; settings: read-out: DIZ
Staphylococcus aureus [18] = experiment: Antibacterial activity against multidrug resistant Staphylococcus aureus ATCC 33591 assessed as diameter of inhibition zone at 0.5 mg/ml incubated for 24 hrs by agar diffusion method; format: functional; settings: read-out: DIZ
Staphylococcus aureus [19] = experiment: Antibacterial activity against multidrug resistant Staphylococcus aureus ATCC 33591 assessed as reduction in bacterial growth incubated for 1 day by paper disk diffusion method; format: functional; settings: ATCC 33591, 24 h
Staphylococcus aureus [20] = experiment: Bactericidal activity against Staphylococcus aureus ATCC 33591 incubated for 24 hrs followed by transferring to freshly prepared broth medium and measured after 24 hrs by broth microdilution assay; format: functional; settings: time 48 hrs
Pseudomonas aeruginosa [21] = experiment: Antibacterial activity against multidrug resistant Pseudomonas aeruginosa ATCC BAA-2111 assessed as diameter of inhibition zone at 0.5 mg/ml incubated for 24 hrs by agar diffusion method; format: functional; settings: read-out: DIZ
Staphylococcus aureus [22] = experiment: Bactericidal activity against Staphylococcus aureus ATCC 43300 incubated for 24 hrs followed by transferring to freshly prepared broth medium and measured after 24 hrs by broth microdilution assay; format: functional; settings: time 48 hrs
Pseudomonas aeruginosa [23] = experiment: Antibacterial activity against multidrug resistant Pseudomonas aeruginosa ATCC BAA-2111 assessed as reduction in bacterial growth incubated for 1 day by paper disk diffusion method; format: functional; settings: ATCC BAA-2111, 24 h
Escherichia coli [24] = experiment: Antibacterial activity against multidrug resistant Escherichia coli ATCC BAA-196 assessed as diameter of inhibition zone at 0.5 mg/ml incubated for 24 hrs by agar diffusion method; format: functional; settings: read-out: DIZ
Pseudomonas aeruginosa [25] = experiment: Bactericidal activity against Pseudomonas aeruginosa ATCC BAA-2111 incubated for 24 hrs followed by transferring to freshly prepared broth medium and measured after 24 hrs by broth microdilution assay; format: functional; settings: time 48 hrs
Escherichia coli [26] = experiment: Bactericidal activity against Escherichia coli ATCC BAA-196 incubated for 24 hrs followed by transferring to freshly prepared broth medium and measured after 24 hrs by broth microdilution assay; format: functional; settings: time 48 hrs
Escherichia coli [27] = experiment: Antibacterial activity against multidrug resistant Escherichia coli ATCC BAA-196 assessed as reduction in bacterial growth incubated for 1 day by paper disk diffusion method; format: functional; settings: ATCC BAA-196, 24 h
Staphylococcus aureus [28] = experiment: Antibacterial activity against multidrug resistant Staphylococcus aureus ATCC 43300 assessed as reduction in bacterial growth incubated for 1 day by paper disk diffusion method; format: functional; settings: ATCC 43300, 24 h

SMILES	MIC (Staphylococcus aureus [1])	zone of inhibition at 500 µg/mL (Enterococcus faecalis [5])	MIC (Enterococcus faecalis [6])	zone of inhibition at 500 µg/mL (Staphylococcus aureus [8])	zone of inhibition at 500 µg/mL (Salmonella typhimurium [9])	MIC (Salmonella typhimurium [11])	zone of inhibition at 500 µg/mL (Escherichia coli [13])	MIC (Escherichia coli [14])	zone of inhibition at 500 µg/mL (Aspergillus brasiliensis [2])	zone of inhibition at 500 µg/mL (Candida albicans [3])	MIC (Aspergillus brasiliensis [12]; ATCC 16404, 72 h, time 3 day)	MIC (Candida albicans [15]; ATCC 10231, 24 h)	also measured
CN(C)[C@@H]1C(O)=C(C(N)=O)C(=O)[C@@]2(O)C(O)=C3C(=O)c4c(O)cccc4[C@@](C)(O)[C@H]3C[C@@H]12 [TETRACYCLINE]	62.5 µg/mL (≈ 141 µM)	22 mm	62.5 µg/mL (≈ 141 µM)	25 mm	21 mm	62.5 µg/mL (≈ 141 µM)	23 mm	15.6 µg/mL (≈ 35.1 µM)					diameter of the inhibition zone (DIZ) (Aspergillus brasiliensis [2]): inactive; diameter of the inhibition zone (DIZ) (Candida albicans [3]): inactive; MBC (Staphylococcus aureus [4]): 87.5 µg/mL (≈ 197 µM); MBC (Salmonella typhimurium [7]): 81.2 µg/mL (≈ 183 µM); MBC (Enterococcus faecalis [10]): 37.5 µg/mL (≈ 84.4 µM); MIC (Aspergillus brasiliensis [12]; time 3.0 day): inactive; MIC (Candida albicans [15]): inactive; MBC (Escherichia coli [16]): 18.7 µg/mL (≈ 42.2 µM)
CCn1cc(C(=O)O)c(=O)c2cc(F)c(N3CCNCC3)cc21 [NORFLOXACIN]													zone of inhibition at 500 µg/mL (Staphylococcus aureus [17]): 25 mm; zone of inhibition at 500 µg/mL (Staphylococcus aureus [18]): 26 mm; MIC (Staphylococcus aureus [19]): 0.78 µg/mL (≈ 2.44 µM); MBC (Staphylococcus aureus [20]): 1.56 µg/mL (≈ 4.89 µM); zone of inhibition at 500 µg/mL (Pseudomonas aeruginosa [21]): 24 mm; MBC (Staphylococcus aureus [22]): 2.81 µg/mL (≈ 8.8 µM); MIC (Pseudomonas aeruginosa [23]): 3.13 µg/mL (≈ 9.8 µM); zone of inhibition at 500 µg/mL (Escherichia coli [24]): 27 mm; MBC (Pseudomonas aeruginosa [25]): 4.69 µg/mL (≈ 14.7 µM); MBC (Escherichia coli [26]): 3.53 µg/mL (≈ 11.1 µM); MIC (Escherichia coli [27]): 1.57 µg/mL (≈ 4.92 µM); MIC (Staphylococcus aureus [28]): 1.25 µg/mL (≈ 3.91 µM)
CCOC(=O)C1=C(N)OC(C)=C(C(C)=O)C12C(=O)Nc1ccc(S(=O)(=O)N3CCCCC3)cc12 (centres undefined)	125 µg/mL (≈ 255 µM)	20 mm	31.2 µg/mL (≈ 63.8 µM)	10 mm	15 mm	71.1 µg/mL (≈ 145 µM)	16 mm	17.8 µg/mL (≈ 36.3 µM)	10 mm	13 mm	143 µg/mL (≈ 292 µM)	71.1 µg/mL (≈ 145 µM)	
CCOC(=O)/C(C#N)=C1\C(=O)Nc2ccc(S(=O)(=O)N3CCCCC3)cc21	167 µg/mL (≈ 428 µM)	15 mm	133 µg/mL (≈ 342 µM)	7 mm	11 mm	125 µg/mL (≈ 321 µM)	14 mm	62.5 µg/mL (≈ 160 µM)	15 mm	16 mm	88.3 µg/mL (≈ 227 µM)	125 µg/mL (≈ 321 µM)	
CC(=O)C1=C(C)OC(N)=C(C#N)C12C(=O)Nc1ccc(S(=O)(=O)N3CCCCC3)cc12 (centres undefined)	167 µg/mL (≈ 376 µM)	15 mm	167 µg/mL (≈ 376 µM)	8 mm	15 mm	88.8 µg/mL (≈ 201 µM)	15 mm	62.5 µg/mL (≈ 141 µM)	14 mm	16 mm	125 µg/mL (≈ 282 µM)	71.1 µg/mL (≈ 161 µM)	
